# Experimental data taken from patent US9403805B2, “Antiviral compounds” (Hoffmann-La Roche Inc., priority 2012, dated 2016).
# Test system: HCV GT1b replicon
# Assay: HCV GT1b replicon luciferase reporter assay (2209-23 cells)
# Format: cell-based
# Conditions: Hepatitis C virus, genotype 1a / genotype 1b; 2209-23 cells (Huh-7 with GT-1b Con1 subgenomic replicon), Renilla luciferase read 72 hours after compound addition; read-out: GT-1a - EC50 (nM) HCV, GT1b, IC50 (µM)
# Source text: Determination of compounds HCV GT1b inhibitory replicon activity using the replicon luciferase reporter assay
# The 2209-23 cell line was developed at Roche by stable transfection of the hepatoma cell line Huh-7 with a GT-1b Con1 subgenomic bicistronic replicon as previously described. Subgenomic replicon cell line was established in cured Huh7 cells, obtained from R. Bartenschlager (J Virol. 2003 March; 77 (5):3007-19) The GT-1a H77 subgenomic replicon vector pRLuc H77 1b 75 S/I, was created by replacing the nonstructural region of the GT-1b Con1 subgenomic replicon by the one of the H77 strain, except for the first 75 amino acids of the NS3 protein that are from GT-1b Conl strain. (J. Virol. 2001 77:5352-59) The GT-1a pRLuc H77 1b 75 S/I subgenomic replicon cell line was established in cured Huh7 cells, obtained from R. Bartenschlager. (J Virol. 2003 March; 77 (5):3007-19)
# All the subgenomic replicon cell lines were cultured in Dulbecco's Modified Eagle Medium (DMEM-Glutamax™-I; Invitrogen Cat #10569-010). The medium was supplemented with 10% Fetal Bovine Serum (Invitrogen Cat #10082-147), 1% penicillin/streptomycin (Mediatech Cat #30-002-CI) and 500 μg/ml of G418 (Mediatech Cat #30-234-CI). Cells were maintained at 37° C. in a humidified 5% CO2 atmosphere.
# 2209-23 cells were plated at a cell density of 5000 cells per well in 96 well plates (Becton Dickinson, Cat #35 3296). Cells were plated in 90 μl of Dulbecco's Modified Eagle Medium (DMEM-Glutamax™-I), (Invitrogen Cat #10569-010) medium was supplemented with 5% Fetal Bovine Serum (Invitrogen Cat #10082-147), 1% penicillin/streptomycin (Mediatech Cat #30-002-CI). The pRluc H77 1b 75 SA cells were plated in 96-well plate at 3000 cells/well in DMEM-Glutamax™-I containing 5% FBS and 1% penicillin/streptomycin in 90 μl final volume. Cells were allowed to equilibrate for 24 hours at 37° C. and 5% CO2 at which time compounds were added. Compounds (or medium as a control) were added 24 hours post-plating in 3 fold dilutions at a final DMSO concentration of 1% in 10 μl volume. Renilla luciferase reporter signal was read 72 hours after addition of compounds using the Renilla Luciferase Assay System (Promega, cat #E2820). EC50 values were defined as the compound concentration at which a 50% reduction in the levels of renilla luciferase reporter was observed as compared to control samples in the absence of compound and was determined by non-linear fitting of compound dose-response data. The EC50 was approximated if maximum percentage inhibition was less than 90% and more than 70%.
row,SMILES,IC50 [nM]
1,"CC(C)(C)OC(=O)[C@@H]1C[C@H](NC(=O)c2ccc3ccccc3c2O)CN1CC1CCCCC1 [Compound I-1, (2S,4S)-1-Cyclohexylmethyl-4-[(1-hydroxy-naphthalene-2-carbonyl)-amino]-pyrrolidine-2-carboxylic acid tert-butyl ester]",47
2,"COC(=O)[C@@H]1C[C@H](NC(=O)c2ccc3ccccc3c2O)CN1CCC(C)(C)C [Compound I-2, (2S,4S)-1-(3,3-Dimethyl-butyl)-4-[(1-hydroxy-naphthalene-2-carbonyl)-amino]-pyrrolidine-2-carboxylic acid methyl ester]",79
3,"CCOC(=O)[C@@H]1C[C@H](NC(=O)c2ccc3ccccc3c2O)CCN1CC1CCCCC1 [Compound I-3, (2S,4R)-1-Cyclohexylmethyl-4-[(1-hydroxy-naphthalene-2-carbonyl)-amino]-piperidine-2-carboxylic acid ethyl ester]",51
4,"CCOC(=O)[C@@H]1C[C@H](NC(=O)c2ccc3ccccc3c2O)CN1CC1CCCCC1 [Compound I-4, (2S,4S)-1-Cyclohexylmethyl-4-[(1-hydroxy-naphthalene-2-carbonyl)-amino]-pyrrolidine-2-carboxylic acid ethyl ester]",29
5,"O=C(N[C@H]1C[C@@H](c2nc3ccccc3o2)N(CC2CCCCC2)C1)c1ccc2ccccc2c1O [Compound I-5, 1-Hydroxy-naphthalene-2-carboxylic acid ((3S,5S)-5-benzooxazol-2-yl-1-cyclohexylmethyl-pyrrolidin-3-yl)-amide]",52
6,"COC(=O)[C@@H]1C[C@H](NC(=O)c2ccc3ccccc3c2O)CCN1CC1CCCCC1 [Compound I-6, (2S,4R)-1-Cyclohexylmethyl-4-[(1-hydroxy-naphthalene-2-carbonyl)-amino]-piperidine-2-carboxylic acid methyl ester]",55
7,"Cc1cnc([C@@H]2C[C@H](NC(=O)c3ccc4ccccc4c3O)CN2CC2CCCCC2)o1 [Compound I-7, 1-Hydroxy-naphthalene-2-carboxylic acid [(3S,5S)-1-cyclohexylmethyl-5-(5-methyl-oxazol-2-yl)-pyrrolidin-3-yl]-amide]",70
8,"O=C(N[C@H]1C[C@@H](c2ncc(-c3ccccc3)o2)N(CC2CCCCC2)C1)c1ccc2ccccc2c1O [Compound I-8, 1-Hydroxy-naphthalene-2-carboxylic acid [(3S,5S)-1-cyclohexylmethyl-5-(5-phenyl-oxazol-2-yl)-pyrrolidin-3-yl]-amide]",86
9,"O=C(N[C@H]1C[C@@H](c2ncco2)N(CC2CCCCC2)C1)c1ccc2ccccc2c1O [Compound I-9, 1-Hydroxy-naphthalene-2-carboxylic acid ((3S,5S)-1-cyclohexylmethyl-5-oxazol-2-yl-pyrrolidin-3-yl)-amide]",114
10,"COC(=O)[C@@H]1C[C@H](NC(=O)c2ccc3ccccc3c2O)CN1CC1CCCCC1 [Compound I-10, (2S,4S)-1-Cyclohexylmethyl-4-[(1-hydroxy-naphthalene-2-carbonyl)-amino]-pyrrolidine-2-carboxylic acid methyl ester]",120
11,"COC(=O)[C@@H]1C[C@H](NC(=O)c2ccc3ccccc3c2O)CN1Cc1ccccc1 [Compound I-11, (2S,4S)-1-Benzyl-4-[(1-hydroxy-naphthalene-2-carbonyl)-amino]-pyrrolidine-2-carboxylic acid methyl ester]",121
12,"CCOC(=O)[C@@H]1C[C@H](NC(=O)c2ccc3ccccc3c2O)CN1CC1CCCC1 [Compound I-12, (2S,4S)-1-Cyclopentylmethyl-4-[(1-hydroxy-naphthalene-2-carbonyl)-amino]-pyrrolidine-2-carboxylic acid ethyl ester]",129
13,"O=C(N[C@H]1C[C@@H](C(=O)NCc2ccccc2)N(CC2CCCCC2)C1)c1ccc2ccccc2c1O [Compound I-13, (2S,4S)-1-Cyclohexylmethyl-4-[(1-hydroxy-naphthalene-2-carbonyl)-amino]-pyrrolidine-2-carboxylic acid benzylamide]",163
14,"CCOC(=O)[C@@H]1C[C@H](NC(=O)c2ccc3ccccc3c2O)CN1C(=O)C1CCCCC1 [Compound I-14, (2S,4S)-1-Cyclohexanecarbonyl-4-[(1-hydroxy-naphthalene-2-carbonyl)-amino]-pyrrolidine-2-carboxylic acid ethyl ester]",184
15,"CC(C)NC(=O)[C@@H]1C[C@H](NC(=O)c2ccc3ccccc3c2O)CN1CC1CCCCC1 [Compound I-15, (2S,4S)-1-Cyclohexylmethyl-4-[(1-hydroxy-naphthalene-2-carbonyl)-amino]-pyrrolidine-2-carboxylic acid isopropylamide]",187
16,"CCCNC(=O)[C@@H]1C[C@H](NC(=O)c2ccc3ccccc3c2O)CN1CC1CCCCC1 [Compound I-16, (2S,4S)-1-Cyclohexylmethyl-4-[(1-hydroxy-naphthalene-2-carbonyl)-amino]-pyrrolidine-2-carboxylic acid propylamide]",205
17,"CCOC(=O)[C@@H]1C[C@H](NC(=O)c2ccc3ccccc3c2O)CN1CC1CCC1 [Compound I-17, (2S,4S)-1-Cyclobutylmethyl-4-[(1-hydroxy-naphthalene-2-carbonyl)-amino]-pyrrolidine-2-carboxylic acid ethyl ester]",219
18,"CCNC(=O)[C@@H]1C[C@H](NC(=O)c2ccc3ccccc3c2O)CN1CC1CCCCC1 [Compound I-18, (2S,4S)-1-Cyclohexylmethyl-4-[(1-hydroxy-naphthalene-2-carbonyl)-amino]-pyrrolidine-2-carboxylic acid ethylamide]",221
19,"CCNC(=O)[C@@H]1C[C@H](NC(=O)c2ccc3ccccc3c2O)CCN1CC1CCCCC1 [Compound I-19, (2S,4R)-1-Cyclohexylmethyl-4-[(1-hydroxy-naphthalene-2-carbonyl)-amino]-piperidine-2-carboxylic acid ethylamide]",223
20,"COC(=O)[C@H]1C[C@H](NC(=O)c2ccc3ccccc3c2O)CN1CC1CCCCC1 [Compound I-20, (2R,4S)-1-Cyclohexylmethyl-4-[(1-hydroxy-naphthalene-2-carbonyl)-amino]-pyrrolidine-2-carboxylic acid methyl ester]",233
21,"COC(=O)[C@]1(C)C[C@H](NC(=O)c2ccc3ccccc3c2O)CN1CC1CCCCC1 [Compound I-21, (2S,4S)-1-Cyclohexylmethyl-4-[(1-hydroxy-naphthalene-2-carbonyl)-amino]-2-methyl-pyrrolidine-2-carboxylic acid methyl ester]",247
22,"CCOC(=O)[C@@H]1C[C@H](NC(=O)c2ccc3ccccc3c2O)CN1CC(C)C [Compound I-22, (2S,4S)-4-[(1-Hydroxy-naphthalene-2-carbonyl)-amino]-1-isobutyl-pyrrolidine-2-carboxylic acid ethyl ester]",299
23,"COC(=O)[C@@H]1C[C@H](NC(=O)c2ccc3ccccc3c2N)CN1CC1CCCCC1 [Compound I-23, (2S,4S)-4-[(1-Amino-naphthalene-2-carbonyl)-amino]-1-cyclohexylmethyl-pyrrolidine-2-carboxylic acid methyl ester]",336
24,"CCOC(=O)[C@@H]1C[C@H](NC(=O)c2ccc3cccnc3c2O)CN1CC1CCCCC1 [Compound I-24, (2S,4S)-1-Cyclohexylmethyl-4-[(8-hydroxy-quinoline-7-carbonyl)-amino]-pyrrolidine-2-carboxylic acid ethyl ester]",367
25,"NC(=O)[C@@H]1C[C@H](NC(=O)c2ccc3ccccc3c2O)CN1CC1CCCCC1 [Compound I-25, (2S,4S)-1-Cyclohexylmethyl-4-[(1-hydroxy-naphthalene-2-carbonyl)-amino]-pyrrolidine-2-carboxylic acid amide]",509
26,"O=C(N[C@H]1C[C@@H](C(=O)N2CCCC2)N(CC2CCCCC2)C1)c1ccc2ccccc2c1O [Compound I-26, 1-Hydroxy-naphthalene-2-carboxylic acid [(3S,5S)-1-cyclohexylmethyl-5-(pyrrolidine-1-carbonyl)-pyrrolidin-3-yl]-amide]",640
27,"CCOC(=O)[C@@H]1C[C@@H](NC(=O)c2ccc3ccccc3c2O)CN1Cc1ccccc1 [Compound I-27, (2S,4R)-1-Benzyl-4-[(1-hydroxy-naphthalene-2-carbonyl)-amino]-pyrrolidine-2-carboxylic acid ethyl ester]",659
